Experimental data as given in PMC10349806 (Nature Communications, 2023).
Values joined by “and” are separate entries in the source; they are usually repeats but may differ in a detail not shown here. Equal entries are not always repeated.

Biological target: T1, PfCRT variant CD3 (F3A, E29A, F52A, Y238A, F340A, E399A, E407A) (Plasmodium falciparum, UniProt Q9N623, A220S/E29A/E399A/E407A/F340A/F3A/F52A/I356T/K76T/M74I/N326S/N75E/Q271E/R371I/Y238A)
T1 sequence (Q9N623 1-424 F3A/E29A/F52A/M74I/N75E/K76T/A220S/Y238A/Q271E/N326S/F340A/I356T/R371I/E399A/E407A): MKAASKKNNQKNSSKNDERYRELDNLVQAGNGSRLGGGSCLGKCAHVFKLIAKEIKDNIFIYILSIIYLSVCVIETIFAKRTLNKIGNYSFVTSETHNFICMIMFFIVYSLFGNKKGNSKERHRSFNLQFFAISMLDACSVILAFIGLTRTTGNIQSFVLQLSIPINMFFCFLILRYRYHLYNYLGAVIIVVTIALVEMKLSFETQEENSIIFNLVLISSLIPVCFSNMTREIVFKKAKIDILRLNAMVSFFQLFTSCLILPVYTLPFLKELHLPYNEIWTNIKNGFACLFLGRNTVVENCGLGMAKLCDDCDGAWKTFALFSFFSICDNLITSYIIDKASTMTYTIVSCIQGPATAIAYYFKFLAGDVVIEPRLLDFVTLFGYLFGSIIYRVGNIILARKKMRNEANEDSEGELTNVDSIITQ
Assay: CQ uptake assay, oocytes expressing CD3
Format: cell-based
Experimental: Site-directed mutagenesis of PfCRT^Dd2 was performed as described using the megaprimer method with overlap extension[21],[54]. The primer pairs used are listed in Supplementary Table 6. Please note that a codon-optimized and oocyte-adapted version of PfCRT^Dd2 was used[22] (Supplementary Fig. 16). The resulting DNA fragment was cloned into the SP64T expression vector and verified by sequencing.
Oocytes were obtained as described previously. Briefly, adult (>2 years old) female X. laevis frogs (NASCO) were anesthetized in a cooled solution of ethyl 3-amino benzoate methanesulfonate (0.1%, w/v), followed by a surgical removal of parts of the ovary. The ovary lobes were carefully dissected and small pieces of oocytes were incubated in Ca^2+-free ND96 buffer (96 mM NaCl, 2 mM KCl, 1 mM MgCl2 buffered with 5 mM HEPES/NaOH, pH 7.5) supplemented with collagenase D (0.1%, w/v; Roche), BSA (0.5%, w/v), and 9 mm Na2HPO4 at 18 °C for 14-16 h while gentle shaking. After incubation, the oocytes were carefully washed several times with ND96 buffer (96 mM NaCl, 2 mM KCl, 1.8 mM CaCl2, 1 mM MgCl2 buffered with 5 mM HEPES/NaOH, pH 7.5) supplemented with 100 mg l^−1 gentamycin). Defolliculated and healthy-looking stage V-VI oocytes were manually selected for RNA microinjection. The RNA was generated as following: The codon-optimized sequences of PfCRT variants were cloned into the pSP64T expression vector. After vector linearization using the restriction endonucleases BamHI or SalI (New England Biolabs), transcription was performed using the in vitro SP6 mMessage mMachine Kit (Ambion)[34]. The obtained RNA was kept at −80 °C and diluted with nuclease-free water to a concentration of 0.6 μg μl^−1. Precision-bore glass capillary tubes (3.5-inch glass capillaries; Drummond Scientific Co.) were pulled on a vertical puller (P-87 Flaming/Brown micropipette puller, Sutter Instrument Co.), graduated, and placed on a microinjector (Nanoject II Auto-Nanoliter Injector, Drummond Scientific Co.). 50 nl of nuclease-free water alone (control oocytes) or 50 nl of 0.6 μg μl^−1 RNA were injected under stereomicroscopic control. Injected oocytes were incubated for 46–72 h at 18 °C with twice-daily buffer changes before usage in experiments.
Drug uptake assays were performed as described previously[21],[22],[24],[34]. […] The direction of radio-labeled drug transport is here from the mostly acidic extracellular solution (pH 4.5 or 6.0, as indicated) into the oocyte cytosol (pH ∼ 7.2), which corresponds to the efflux of drug from the acidic digestive vacuole (pH 5.2) into the parasite cytoplasm (pH 7.2). The topology of PfCRT in the oolemma is such that both the N- and C-terminus face the extracellular milieu[3],[22]. In the parasite, the N- and C-terminus face the lumen of the digestive vacuole. CQ uptake kinetics were performed by incubating oocytes in ND96 buffer adjusted to a pH of 4.5, 5.0, 5.5, or 6.0 and supplemented with 50 nM [^3H]CQ and one of 7 different CQ concentrations (10 µM, 50 µM, 100 µM, 200 µM, 300 µM, 400 µM, 500 µM CQ). The reaction was stopped at the 60 min time point, which is in the linear uptake range[22],[34] (Supplementary Fig. 17). For determination of the amount of drug uptake for each oocyte, the reaction medium was removed and the oocytes were washed three times with 2 ml of ice-cold ND96 buffer. Each oocyte was individually transferred to a scintillation vial containing 5% sodium dodecyl sulfate (200 μl) for lysis. The radioactivity of each sample was measured using a liquid scintillation analyzer Tri-Carb 4910 TR (PerkinElmer). Oocytes that were injected with water instead of RNA were analyzed in parallel, representing the uptake of a drug by diffusion and/or endogenous permeation pathways. The resulting value represents the “background“ level of drug accumulation in oocytes (in-depth discussion in[22]). […]

## CCN(CC)CCCC(C)Nc1ccnc2cc(Cl)ccc12 (stereo not drawn) [CQ, chloroquine]
CD3, 50 µM CQ, 1 h, mean ± SEM
  Activity at pH 4.5: 1.78 ± 0.46 pmol h-1 oocyte-1
  Activity at pH 6.0: 2.73 ± 0.57 pmol h-1 oocyte-1
CD3, CQ transport at pH 4.5 / pH 6.0
  R-value: 0.62 ± 0.06
pH 4.5, single replicates, Fig 1d left
  CD3 transport activity pH 4.5: 0.66 pmol oocyte-1 h-1 and 2.21 pmol oocyte-1 h-1 and 2.46 pmol oocyte-1 h-1
pH 4.5 vs pH 6.0, Fig 1d left
  CD3 R-value: 0.47 and 0.72 and 0.65
pH 6.0, single replicates, Fig 1d left
  CD3 transport activity pH 6.0: 1.39 pmol oocyte-1 h-1 and 3.05 pmol oocyte-1 h-1 and 3.76 pmol oocyte-1 h-1
